{"source": "patent US6376209B2", "about": "“Increasing the FVII sensitivity of a thromboplastin reagent” (Dade Behring Marburg GmbH, priority 1997, dated 2002)", "assay_in_all_cases": "Quick's thromboplastin time (PT), Schnitger & Gross", "format_in_all_cases": "biochemical", "key": {"[1]": {"system": "FVII-deficient plasma", "details": "0.5 sec", "method": "(§1) Quick's thromboplastin time (PT) was then determined using a Schnitger & Gross as follows:\n(§2) Heat reagents and tubes to 37° C.;\n(§3) Introduce […] of control plasma N or FVII-deficient plasma into the tubes;\n(§4) Incubate for 1 min in the thermoblock;\n(§5) Add 200 μl of thromboplastin and at the same time start the measuring operation; shake the tube briefly and place it in the measuring position of the Schnitger & Gross, and insert the electrode holder up to the limit stop;\n(§6) Read off the coagulation time.\n(§7) Quick's thromboplastin time (PT) is then determined using a Schnitger & Gross as follows:\n(§8) Introduce 100 μl of plasma into the tubes;\n(§9) Add 200 μl of thromboplastin and at the same time start the measuring operation;\n(§10) shake the tube briefly, place it in the measuring position of the Schnitger & Gross, and insert the electrode holder up to the limit stop;"}, "[2]": {"system": "control plasma Patho II", "method": "as §7, §2, §8, §4, §9, §10, §6\nThe spread was calculated from the ratio of the coagulation times for the dilution of the StHPl and the StHPl, and the FVII sensitivity was calculated from the ratio of the coagulation times for FVII-MP and STHPL.\nStandard human plasma, the control plasma Patho II and an FVII-deficient plasma were used as samples. The reagents were stored at 4° C. and 37° C. and the coagulation time was repeated after 7 and 14 days. The spread was calculated from the ratio of the coagulation times of the Patho II and the StHPl, and the FVII sensitivity was calculated from the ratio of the coagulation times for FVII-MP and the STHPL."}, "[3]": {"system": "Standard human plasma", "method": "as §1, §2, §3, §4, §5, §6, §7, §8, §9, §10"}, "[4]": {"details": "0.7 mg/l added to Thromborel S heated 95° C."}, "[5]": {"details": "0.7 mg/l added to Thromborel S heated 95° C., 0.5 sec"}, "[6]": {"details": "0.5 mg/l added to Thromborel S heated 95° C."}, "[7]": {"details": "0.01 mM added to Thromborel S heated 95° C."}, "[8]": {"details": "0.025 mM added to Thromborel S heated 95° C."}, "[9]": {"details": "0.05 mM added to Thromborel S heated 95° C."}, "[10]": {"details": "0.1 mM added to Thromborel S heated 95° C."}, "[11]": {"details": "0.5 mM added to Thromborel S heated 95° C."}, "[12]": {"details": "0.01 mM added to Thromborel S heated 95° C., 0.5 sec"}, "[13]": {"details": "0.025 mM added to Thromborel S heated 95° C., 0.5 sec"}, "[14]": {"details": "0.05 mM added to Thromborel S heated 95° C., 0.5 sec"}, "[15]": {"details": "0.1 mM added to Thromborel S heated 95° C., 0.5 sec"}, "[16]": {"details": "0.5 mM added to Thromborel S heated 95° C., 0.5 sec"}}, "note": "Where two headings read alike, the source gives them in different places. Where a SMILES comes first, the peptide text is derived from it. [ ]: non-standard residue; d: D form. The star is where a group is joined. Sta = CC(C)C[C@H](N)[C@@H](O)CC(=O)O; Isovaleryl = CC(C)CC(=O)*", "data": [{"smiles": "CC(C)CC(=O)N[C@H](C(=O)N[C@H](C(=O)N[C@@H](CC(C)C)[C@@H](O)CC(=O)N[C@@H](C)C(=O)N[C@@H](CC(C)C)[C@@H](O)CC(=O)O)C(C)C)C(C)C", "note": "[Pepstatin] (Isovaleryl-VV[Sta]A[Sta]-OH)", "values": [{"measurement": "Coagulation time FVII-MP", "setting": "[1]; [4]", "value": 115, "unit": "s"}, {"measurement": "FVII sens.: FVII-MP/100%", "setting": "[1]; [4]", "value": 10.9}, {"measurement": "Coagulation time Patho II", "setting": "[2]; [5]", "value": 21.6, "unit": "s"}, {"measurement": "Spread: Patho II/100%", "setting": "[2]; [5]", "value": 2.0}, {"measurement": "Coagulation time 100%", "setting": "[3]; [5]", "value": 10.6, "unit": "s"}]}, {"smiles": "CC(=O)N[C@@H](CC(C)C)C(=O)N[C@@H](CC(C)C)C(=O)N[C@H](C=O)CCCNC(=N)N", "note": "[Leupeptin]", "values": [{"measurement": "Coagulation time FVII-MP", "setting": "[1]; [6]", "value": 121, "unit": "s"}, {"measurement": "FVII sens.: FVII-MP/100%", "setting": "[1]; [6]", "value": 11.4}, {"measurement": "Coagulation time Patho II", "setting": "[2]", "value": 22.5, "unit": "s"}, {"measurement": "Spread: Patho II/100%", "setting": "[2]", "value": 2.1}, {"measurement": "Coagulation time 100%", "setting": "[3]", "value": 10.6, "unit": "s"}]}, {"smiles": "Nc1ccc(CS(=O)(=O)F)cc1", "note": "[pa-PMSF, 4-aminophenylmethanesulfonyl fluoride]", "values": [{"measurement": "Coagulation time FVII-MP", "setting": "[1]; [7]", "value": 144, "unit": "s"}, {"measurement": "FVII sens.: FVII-MP/100%", "setting": "[1]; [7]", "value": 13.6}, {"measurement": "Coagulation time FVII-MP", "setting": "[1]; [8]", "value": 147, "unit": "s"}, {"measurement": "FVII sens.: FVII-MP/100%", "setting": "[1]; [8]", "value": 13.8}, {"measurement": "Coagulation time FVII-MP", "setting": "[1]; [9]", "value": 161, "unit": "s"}, {"measurement": "FVII sens.: FVII-MP/100%", "setting": "[1]; [9]", "value": 15.2}, {"measurement": "Coagulation time FVII-MP", "setting": "[1]; [10]", "value": 172, "unit": "s"}, {"measurement": "FVII sens.: FVII-MP/100%", "setting": "[1]; [10]", "value": 16.1}, {"measurement": "Coagulation time FVII-MP", "setting": "[1]; [11]", "value": 298, "unit": "s"}, {"measurement": "FVII sens.: FVII-MP/100%", "setting": "[1]; [11]", "value": 27.6}, {"measurement": "Coagulation time Patho II", "setting": "[2]; [12]", "value": 22.3, "unit": "s"}, {"measurement": "Spread: Patho II/100%", "setting": "[2]; [12]", "value": 2.1}, {"measurement": "Coagulation time Patho II", "setting": "[2]; [13]", "value": 21.8, "unit": "s"}, {"measurement": "Spread: Patho II/100%", "setting": "[2]; [13]", "value": 2.1}, {"measurement": "Coagulation time Patho II", "setting": "[2]; [14]", "value": 22.2, "unit": "s"}, {"measurement": "Spread: Patho II/100%", "setting": "[2]; [14]", "value": 2.1}, {"measurement": "Coagulation time Patho II", "setting": "[2]; [15]", "value": 21.7, "unit": "s"}, {"measurement": "Spread: Patho II/100%", "setting": "[2]; [15]", "value": 2.0}, {"measurement": "Coagulation time Patho II", "setting": "[2]; [16]", "value": "23.", "unit": "i"}, {"measurement": "Spread: Patho II/100%", "setting": "[2]; [16]", "value": 2.1}, {"measurement": "Coagulation time 100%", "setting": "[3]; [12]", "value": 10.6, "unit": "s"}, {"measurement": "Coagulation time 100%", "setting": "[3]; [13]", "value": 10.6, "unit": "s"}, {"measurement": "Coagulation time 100%", "setting": "[3]; [14]", "value": 10.6, "unit": "s"}, {"measurement": "Coagulation time 100%", "setting": "[3]; [15]", "value": 10.7, "unit": "s"}, {"measurement": "Coagulation time 100%", "setting": "[3]; [16]", "value": 10.8, "unit": "s"}]}]}
